Converted amounts (≈) assume the structure as drawn. Where two headings read alike, the source gives them in different places. Starred links: 1 amine or outer side, 2 acyl side, 3 side chain; linkers in the order of their positions; H or OH if unused. Positions of bridges follow the written chain, without caps; N, C: chain ends. Non-standard residues stand in square brackets, D forms with d. Residues, ends and D or L forms follow the SMILES beside them. ξ: configuration not given here. *: point of attachment. X1 = O=C1C[C@@H](C(=O)[*:2])N([*:1])C[C@H]1CSCCNc1ccnc2cc(Cl)ccc12; NMePhe(4-NMe2) = CN[C@@H](Cc1ccc(N(C)C)cc1)C(=O)O; Pip(4-oxo) = O=C1CCN[C@H](C(=O)O)C1; Picolinoyl(3-OH) = O=C(c1ncccc1O)*; Phg = N[C@H](C(=O)O)c1ccccc1; ξPhg = NC(C(=O)O)c1ccccc1; dAbu = CC[C@@H](N)C(=O)O
Legend:
[1] = system: S. pyogenes CIP 56.41T; assay: Antibacterial activity (MIC/MBC); format: cell-based, Streptococcus pyogenes; settings: S. pyogenes CIP 56.41T
[2] = system: S. aureus MRSA clinical isolate; assay: Antibacterial activity (MIC); format: cell-based, Staphylococcus aureus; settings: S. aureus MRSA clinical isolate
[3] = system: S. pneumoniae PSSP CQI 201; assay: Antibacterial activity (MIC); format: cell-based, Streptococcus pneumoniae; settings: S. pneumoniae PSSP CQI 201
[4] = system: Staphylococcus aureus MSSA CIP 4.83; assay: Antibacterial activity (MIC/MBC); format: cell-based; settings: S. aureus MSSA CIP 4.83; for MBC: read-out: MBC
[5] = system: E. faecalis VRE CIP 104676; assay: Antibacterial activity (MIC/MBC); format: cell-based, Enterococcus faecalis; settings: Enterococcus faecalis, E. faecalis VRE CIP 104676; for MIC: read-out: MIC
[6] = system: B. thuringiensis CIP 104676; assay: Antibacterial activity (MIC); format: cell-based; settings: Bacillus thuringiensis, CIP104676; B. thuringiensis CIP 104676; read-out: MIC
[7] = system: E. coli CIP 54127; assay: Antibacterial activity (MIC); format: cell-based; settings: Escherichia coli, CIP54127; E. coli CIP 54127; read-out: MIC
[8] = system: S. pneumoniae PRSP; assay: Antibacterial activity (MIC), Table VII; format: cell-based; settings: Streptococcus pneumoniae; S. pneumoniae PRSP (Table VII); read-out: MIC
[9] = system: H. influenzae CIP 102514; assay: Antibacterial activity (MIC/MBC); format: cell-based, Haemophilus influenzae; settings: Haemophilus influenzae, CIP102514
[10] = system: P. aeruginosa CIP 103467; assay: Antibacterial activity (MIC); format: cell-based; settings: Pseudomonas aeruginosa, CIP103467; P. aeruginosa CIP 103467; read-out: MIC
[11] = system: Staphylococcus aureus MSSA 53.154; assay: Murine experimental septicaemia, in vivo efficacy; design: species or system mice; settings: sc, mice, subcutaneously at 1 and 6 h post infection, read-out: ED50
Experimental: Experimental septicaemia was induced in mice as follows. Briefly, male Swiss OF1 mice (IFFA CREDO-Charles River) weighing 18 to 20 grams were infected intraperitoneally with 0.5 mL of a bacterial suspension containing 8.5×10^7 cfu of Staphylococcus aureus MSSA 53.154 (Institut Pasteur). The hybrid molecules were administered subcutaneously at 1 and 6 h post infection. Control and treatment groups at each dose were composed of seven mice. All the infected but untreated control mice died within 9 days. The 50% effective dose (ED50) values were calculated by a computerized program (GraphPad) from the survival rates on day 9 after infection.

[12] = system: S. pneumoniae PRSP clinical isolate; assay: Antibacterial activity (MIC/MBC); format: cell-based, Streptococcus pneumoniae; settings: Streptococcus pneumoniae; for MIC: PRSP, read-out: MIC
[13] = system: S. pneumoniae PSSP CIP 6.92; assay: Antibacterial activity (MIC/MBC); format: cell-based; settings: Streptococcus pneumoniae, CIP6
[14] = system: M. catarrhalis CIP73.21T; assay: Antibacterial activity (MIC/MBC); format: cell-based; settings: Moraxella catarrhalis
[15] = system: S. pneumoniae PRSP CIP 104471; assay: Antibacterial activity (MIC/MBC); format: cell-based, Streptococcus pneumoniae; settings: Streptococcus pneumoniae; for MIC: read-out: MIC
[16] = system: E. faecalis VRE VanA CIP106996; assay: Antibacterial activity (MIC); format: cell-based; settings: Enterococcus faecalis; E. faecalis VRE VanA CIP106996; read-out: MIC
[17] = system: S. aureus VISA CIP 106757; assay: Antibacterial activity (MIC); format: cell-based; settings: Staphylococcus aureus; S. aureus VISA CIP 106757; read-out: MIC
[18] = system: E. faecium VRE VanA CIP107387; assay: Antibacterial activity (MIC); format: cell-based; settings: Enterococcus faecium; E. faecium VRE VanA CIP107387; read-out: MIC
[19] = system: S. epidermidis MRCNS (E93); assay: Antibacterial activity (MIC); format: cell-based; settings: Staphylococcus epidermidis; S. epidermidis MRCNS (E93); read-out: MIC
[20] = system: C. difficile CIP 104282; assay: Antibacterial activity (MIC); format: cell-based, Clostridium difficile; settings: Clostridioides difficile, CIP104282; C. difficile CIP 104282; read-out: MIC
[21] = system: S. epidermidis MSCNS (D10); assay: Antibacterial activity (MIC); format: cell-based; settings: Staphylococcus epidermidis; S. epidermidis MSCNS (D10); read-out: MIC
[22] = system: E. faecalis VRE VanB CIP106998; assay: Antibacterial activity (MIC); format: cell-based; settings: Enterococcus faecalis; E. faecalis VRE VanB CIP106998; read-out: MIC
[23] = system: S. pneumoniae PRSP (CQR 162); assay: Antibacterial activity (MIC); format: cell-based; settings: Streptococcus pneumoniae; S. pneumoniae PRSP (CQR 162); read-out: MIC
[24] = system: S. aureus MsrA PUL 5054; assay: Antibacterial activity (MIC); format: cell-based; settings: Staphylococcus aureus
[25] = Staphylococcus aureus, read-out: MIC
[26] = H. influenzae CIP 102514, read-out: MIC
[27] = Streptococcus pyogenes, CIP56, read-out: MIC
[28] = survival on day 9, hybrid molecules formulated in water as their sodium salt
[29] = Streptococcus pneumoniae, read-out: MIC

CC[C@H]1NC(=O)[C@@H](NC(=O)c2ncccc2O)[C@@H](C)OC(=O)[C@H](c2ccccc2)NC(=O)[C@@H]2CC(=O)CCN2C(=O)[C@H](Cc2ccc(N(C)C)cc2)N(C)C(=O)[C@@H]2CCCN2C1=O [Pristinamycin IA, reference compound] ({Picolinoyl(3-OH)}-T[dAbu]P[NMePhe(4-NMe2)][Pip(4-oxo)][Phg]; ester 1-C)
MIC [1]: 1.25 µg/mL (≈ 1.44 µM) | MIC [2]: 5 µg/mL (≈ 5.77 µM) | MIC [3]: 0.31 µg/mL (≈ 0.358 µM) | MIC [4]: 2.5 µg/mL (≈ 2.88 µM)

Cl.O=C(O)c1cn(C2CC2)c2cc(N3CCN(c4ccnc5cc(C(F)(F)F)ccc45)CC3)c(F)cc2c1=O [PA 1284, 1-Cyclopropopyl-6-fluoro-4-oxo-7-[4-(7-trifluoromethylquinolin-4-yl)-piperazin-1-yl]-1,4-dihydroquinoline-3-carboxylic acid hydrochloride salt]
MIC [5]: 0.625 µg/mL | MIC [6]: 0.625 µg/mL | MIC [7]: 1.25 µg/mL | MIC [8]: 0.039 µg/mL | MIC [4, 25]: 0.156 µg/mL | MIC [9, 26]: 0.625 µg/mL | MIC [10]: > 5 µg/mL

Cl.O=C(O)c1cn(C2CC2)c2cc(N3CCN(c4ccnc5c(Cl)cccc45)CC3)c(F)cc2c1=O [PA 1285, 7-[4-(8-Chloroquinolin-4-yl)-piperazin-1-yl]-1-cyclopropopyl-6-fluoro-4-oxo-1,4-dihydroquinoline-3-carboxylic acid hydrochloride salt]
MIC [5]: 0.156 µg/mL | MIC [6]: 0.156 µg/mL | MIC [7]: 0.625 µg/mL | MIC [8]: 0.039 µg/mL | MIC [4, 25]: 0.02 µg/mL | MIC [9, 26]: 0.312 µg/mL | MIC [10]: > 5 µg/mL

CC(=O)OCC1=C(C(=O)O)N2C(=O)[C@@H](NC(=O)CNc3ccnc4cc(C(F)(F)F)ccc34)[C@H]2SC1 [PA 1100, (6R,7R)-3-Acetoxymethyl-7-[2-(7-trifluoromethylquinolin-4-ylamino)-acetylamino]-8-oxo-5-thia-1-aza-bicyclo[4.2.0]oct-2-ene-2-carboxylic acid]
MBC ([1]; Streptococcus pyogenes, CIP56): 0.003 µg/mL (≈ 0.00572 µM) | MIC [1, 27]: 0.003 µg/mL (≈ 0.00572 µM) | MBC [5]: 25 µg/mL (≈ 47.7 µM) | MIC [5]: 12.5 µg/mL (≈ 23.8 µM) | ED50 [11, 28]: 0.16 mg/kg | MBC [12]: 0.39 µg/mL (≈ 0.744 µM) | MIC [12]: 0.39 µg/mL (≈ 0.744 µM) | MBC [13]: 0.006 µg/mL (≈ 0.0114 µM) | MIC [13]: 0.006 µg/mL (≈ 0.0114 µM) | MBC [14]: 1.56 µg/mL (≈ 2.97 µM) | MIC [14]: 0.78 µg/mL (≈ 1.49 µM) | MBC ([4]; Staphylococcus aureus): 25 µg/mL (≈ 47.7 µM) | MIC [4, 25]: 0.2 µg/mL (≈ 0.381 µM) | MBC [9]: 25 µg/mL (≈ 47.7 µM) | MIC [9]: 0.78 µg/mL (≈ 1.49 µM) | MBC [15]: 0.78 µg/mL (≈ 1.49 µM) | MIC [15]: 0.2 µg/mL (≈ 0.381 µM)

CN[C@H](CC(C)C)C(=O)N[C@H]1C(=O)N[C@@H](CC(N)=O)C(=O)N[C@H]2C(=O)N[C@H]3C(=O)N[C@H](C(=O)N[C@H](C(=O)O)c4cc(O)cc(O)c4-c4cc3ccc4O)[C@H](O)c3ccc(c(Cl)c3)Oc3cc2cc(c3OC2OC(CO)C(O)C(O)C2OC2CC(C)(NCCNc3ccnc4cc(Cl)ccc34)C(O)C(C)O2)Oc2ccc(cc2Cl)[C@H]1O (some centres unmarked) [PA 1159]
MIC [1, 27]: 0.125 µg/mL (≈ 0.0756 µM) | MIC [2, 25]: 0.1 µg/mL (≈ 0.0605 µM) | MIC [16]: 1.56 µg/mL (≈ 0.943 µM) | MIC [3, 29]: 0.006 µg/mL (≈ 0.00363 µM) | MIC [17]: 0.2 µg/mL (≈ 0.121 µM) | MIC [18]: 25 µg/mL (≈ 15.1 µM) | ED50 ([11]; survival on day 9, hybrid molecules formulated in water as their bis(hydrochloride) salt): 0.37 mg/kg | MIC [4, 25]: 0.2 µg/mL (≈ 0.121 µM) | MIC [19]: 0.05 µg/mL (≈ 0.0302 µM) | MIC [20]: 0.16 µg/mL (≈ 0.0967 µM) | MIC [21]: 0.2 µg/mL (≈ 0.121 µM) | MIC [22]: 12.5 µg/mL (≈ 7.56 µM) | MIC [23]: 0.025 µg/mL (≈ 0.0151 µM) | MIC [24]: < 0.045 µg/mL

CC(=O)NC[C@H]1CN(c2ccc(N3CCOCC3)c(F)c2)C(=O)O1 [Linezolid, reference compound]
MIC [3, 29]: 1.25 µg/mL (≈ 3.71 µM) | MIC [20]: 0.16 µg/mL (≈ 0.474 µM)

CC[C@H]1NC(=O)[C@@H](NC(=O)c2ncccc2O)[C@@H](C)OC(=O)C(c2ccccc2)NC(=O)[C@@H]2CC(=O)[C@H](CSCCNc3ccnc4cc(Cl)ccc34)CN2C(=O)[C@H](Cc2ccc(N(C)C)cc2)N(C)C(=O)[C@@H]2CCCN2C1=O (some centres unmarked) [PA 1182, 5δ-{1-[2-(7-Chloroquinolin-4-ylamino)-ethylamino]-methylsulfanyl}pristinamycin IA] ({Picolinoyl(3-OH)}-T[dAbu]P[NMePhe(4-NMe2)][X1][ξPhg]; ester 1-C)
MIC [1, 27]: 0.32 µg/mL (≈ 0.286 µM) | MIC [2, 25]: 1.25 µg/mL (≈ 1.12 µM) | MIC [3, 29]: 0.31 µg/mL (≈ 0.277 µM) | MIC [4, 25]: 0.31 µg/mL (≈ 0.277 µM)

O=C(CCNc1ccnc2cc(Cl)ccc12)NC[C@H]1CN(c2ccc(N3CCOCC3)c(F)c2)C(=O)O1 [PA 1185, (5S)-3-(7-Chloroquinolin-4-ylamino)-N-[3-(3-fluoro-4-morpholin-4-yl-phenyl)-2-oxo-oxazolidin-5-ylmethyl]-propionamide]
MIC [3, 29]: 1.25 µg/mL (≈ 2.37 µM) | MIC [20]: 0.16 µg/mL (≈ 0.303 µM)

CC(=O)OCC1=C(C(=O)O)N2C(=O)[C@@H](NC(=O)CNc3cc(C)nc4ccccc34)[C@H]2SC1 [PA 1101, (6R,7R-3-Acetoxymethyl-7-[2-2-methylquinolin-4-ylamino)acetylamino]-8-oxo-5-thia-1-aza-bicyclo[4.2.0]oct-2-ene-2-carboxylic acid]
MBC ([1]; Streptococcus pyogenes, CIP56): 0.0015 µg/mL (≈ 0.00319 µM) | MIC [1, 27]: 0.0015 µg/mL (≈ 0.00319 µM) | MBC [5]: 25 µg/mL (≈ 53.1 µM) | MIC [5]: 25 µg/mL (≈ 53.1 µM) | ED50 [11, 28]: 0.13 mg/kg | MBC [12]: 0.39 µg/mL (≈ 0.829 µM) | MIC [12]: 0.2 µg/mL (≈ 0.425 µM) | MBC [13]: 0.006 µg/mL (≈ 0.0128 µM) | MIC [13]: 0.006 µg/mL (≈ 0.0128 µM) | MBC [14]: 0.78 µg/mL (≈ 1.66 µM) | MIC [14]: 0.78 µg/mL (≈ 1.66 µM) | MBC ([4]; Staphylococcus aureus): 25 µg/mL (≈ 53.1 µM) | MIC [4, 25]: 0.2 µg/mL (≈ 0.425 µM) | MBC [9]: 12.5 µg/mL (≈ 26.6 µM) | MIC [9]: 1.56 µg/mL (≈ 3.32 µM) | MBC [15]: 0.78 µg/mL (≈ 1.66 µM) | MIC [15]: 0.2 µg/mL (≈ 0.425 µM)

Reference: patent US20070060558A1 (PALUMED S.A., priority 2004, published 2007)
